According to publication PMC7010297, “How the initiating ribosome copes with ppGpp to translate mRNAs” (PLoS Biology, 2020):
Several values for one entry are separate records, joined by “and”; a condition that tells them apart may be missing. Equal entries are not always repeated. Where two headings read alike, the source gives them in different places.

How the values were obtained:
[1] = target: T1, IF2-bound 30S IC (Escherichia coli, UniProt P0A705); experiment: 30S IC formation by MST, guanosine nucleotide titration; format: binding;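 on MST Average: lower thermophoresis signal means Bpy-tRNAi dissociation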;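 on MST Replicates (a.u.): lower thermophoresis signal means Bpy-tRNAi dissociation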
T1 construct: 6xHis (N); made in house
T1 sequence (P0A705 whole entry, looked up): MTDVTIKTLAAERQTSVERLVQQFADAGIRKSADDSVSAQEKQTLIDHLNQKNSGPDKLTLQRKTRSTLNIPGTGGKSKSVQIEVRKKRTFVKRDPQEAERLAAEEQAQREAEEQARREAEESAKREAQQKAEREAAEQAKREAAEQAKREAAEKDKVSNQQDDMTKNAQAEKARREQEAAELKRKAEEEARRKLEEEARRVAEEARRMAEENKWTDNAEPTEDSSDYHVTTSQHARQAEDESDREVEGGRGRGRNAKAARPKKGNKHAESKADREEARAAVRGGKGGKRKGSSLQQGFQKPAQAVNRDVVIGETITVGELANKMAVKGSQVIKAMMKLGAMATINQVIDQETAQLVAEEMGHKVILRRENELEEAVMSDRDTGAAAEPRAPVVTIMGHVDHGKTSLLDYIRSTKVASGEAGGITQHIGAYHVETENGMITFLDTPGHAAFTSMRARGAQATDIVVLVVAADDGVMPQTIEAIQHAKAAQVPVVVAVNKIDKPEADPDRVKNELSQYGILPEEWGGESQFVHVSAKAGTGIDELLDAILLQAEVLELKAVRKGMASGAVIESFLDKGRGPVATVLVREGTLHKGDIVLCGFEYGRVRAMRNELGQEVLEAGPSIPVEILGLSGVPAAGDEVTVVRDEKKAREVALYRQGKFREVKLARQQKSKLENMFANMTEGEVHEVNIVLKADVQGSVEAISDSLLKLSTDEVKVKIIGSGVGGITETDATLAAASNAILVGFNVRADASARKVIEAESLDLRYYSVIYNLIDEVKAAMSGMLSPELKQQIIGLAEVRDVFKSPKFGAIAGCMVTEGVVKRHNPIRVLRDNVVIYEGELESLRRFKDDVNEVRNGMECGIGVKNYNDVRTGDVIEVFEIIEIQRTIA
Excerpt: To monitor the interaction of initiator tRNA and 30S ribosomal subunits, we used Microscale Thermophoresis (MST) with a fluorescently labelled initiator tRNA (Bpy-tRNAi) (Fig 1B). MST allows to measure fluorescence in a constrained space. Changes on the readout derive from molecular drifts resulting from small thermal equilibrium perturbations. Upon equilibrium perturbations, the patterns of Bpy-tRNAi migration away from the observation space are related to bound and unbound states (Fig 1B). […] On the contrary, a decrease in thermophoresis indicated the dissociation of Bpy-tRNAi. The relation between fluorescence measured at both equilibriums (Ff to Fi, after and prior to the perturbation, respectively) as a function of ligand concentration allowed to determine dissociation constants of the interaction (Fig 1C).
(§1) Continuous lines indicate nonlinear regression fittings with a quadratic equation. Three measurements were performed; mean and standard deviation are plotted (S1 Data). (B) as (A) to measure the concentration dependence for each tested guanosine nucleotide at constant IF2 (1 μM). […] Continuous lines show best fits using exponential functions. (D) Formation of 70S IC as measured by Bpy-tRNAi accommodation in the P site of the ribosome; 0.1 μM 30S ICs were formed with Bpy-tRNAi and rapidly mixed with 0.3 μM 50S subunits on a stopped-flow apparatus as described in [14]. Colors are as in (C). Continuous lines show best fits using an exponential function for a single reaction step. Each stopped-flow trace results from the mean of 5 to 7 replicates.
MST was calculated from the respective fluorescence time dependencies (S3 Fig). […] Symbols as in (B). […] Continuous lines indicate nonlinear regression fittings with quadratic (B and E) or same-site competition (G) functions. Three measurements were performed; mean and standard deviations are plotted (S1 Data).

[2] = target: T2, 70S IC (Escherichia coli, UniProt P0A705); experiment: 70S IC formation by Bpy-tRNAi accommodation, stopped-flow; format: biochemical; set-up: K1, best-fit value: unit not given here; conditions: for A0, best-fit value / A1, best-fit value / K1, best-fit value / k2, best-fit value: fit Y=A0+A1*exp(-K1*x)+k2*x; for kfast (s-1) Avg: fluorescence
T2 construct: 6xHis (N); made in house
T2 sequence (P0A705 whole entry, looked up): as above
Experimental: as §1
(A) Scheme of 70S IC formation. […] Time traces were analyzed by nonlinear regression with exponential terms. […] Formation of 70S IC, as measured by Bpy-tRNAi accommodation in the absence (F) or presence of 200 μM ppGpp (G). Time traces were analyzed by nonlinear regression with one exponential term. […] Continuous lines show best fits using an exponential function for a single reaction step. All time traces are mean values of 5 to 10 replicates. Bar graphs show mean and standard errors (error bars) derived from the nonlinear regression fitting (D,E,H,I) (S1 Data).
To measure 70S pre-IC formation, a SX-20 stopped-flow instrument (Applied Photophysics, Leatherhead, UK) was set up for LS recording with an excitation wavelength of 430 nm. Scattered light was measured at an angle of 90° without a filter. Pseudo first-order conditions were approximated by using ≥3-fold excess of 50S subunits over 30S ICs; 0.2 μM 30S ICs were rapidly mixed in the instrument with 0.6 μM 50S at 25 °C. Bpy-tRNAi accommodation was measured essentially as described elsewhere. Briefly, 0.2 μM 30S ICs were formed using Bpy-tRNAi and rapidly mixed with 0.6 μM 50S at 25 °C. Fluorescence was excited at 470 nm and measured after a 495-nm longpass filter. Individual traces (6–11 traces) were averaged, and the resulting kinetic curve was approximated by single (F = A0 + A1*exp (-kapp1*t)) or double (F = A0 + A1*exp (-kapp1*t) + A2*exp (-kapp2*t)) exponential fit using Graphpad Prism 6.0 software (GraphPad, San Diego, California).

Nc1nc2c(ncn2[C@@H]2O[C@H](COP(=O)(O)OP(=O)(O)OP(=O)(O)O)[C@@H](O)[C@H]2O)c(=O)[nH]1 [GTP, guanosine triphosphate]
MST Average ([1]; Fig 2B, nucleotide 0.005 µM): 931.90 a.u.
MST Replicates (a.u.) ([1]; Fig 2B, nucleotide 0.005 µM, constant IF2 (1 μM)): 929.16 a.u. and 932.86 a.u. and 933.70 a.u.
MST Average ([1]; Fig 2B, nucleotide 0.01 µM): 935.48 a.u.
MST Replicates (a.u.) ([1]; Fig 2B, nucleotide 0.01 µM): 935.39 a.u. and 935.49 a.u. and 935.55 a.u.
MST Average ([1]; Fig 2B, nucleotide 0.02 µM): 931.90 a.u.
MST Replicates (a.u.) ([1]; Fig 2B, nucleotide 0.02 µM): 930.17 a.u. and 932.09 a.u. and 933.42 a.u.
MST Average ([1]; Fig 2B, nucleotide 0.04 µM): 934.94 a.u.
MST Replicates (a.u.) ([1]; Fig 2B, nucleotide 0.04 µM): 935.42 a.u. and 934.45 a.u. and 934.96 a.u.
MST Average ([1]; Fig 2B, nucleotide 0.08 µM): 940.63 a.u.
MST Replicates (a.u.) ([1]; Fig 2B, nucleotide 0.08 µM): 937.42 a.u. and 941.79 a.u. and 942.68 a.u.
MST Average ([1]; Fig 2B, nucleotide 0.16 µM): 949.92 a.u.
MST Replicates (a.u.) ([1]; Fig 2B, nucleotide 0.16 µM): 950.95 a.u. and 949.65 a.u. and 949.17 a.u.
MST Average ([1]; Fig 2B, nucleotide 0.31 µM): 960.63 a.u.
MST Replicates (a.u.) ([1]; Fig 2B, nucleotide 0.31 µM): 959.49 a.u. and 961.54 a.u. and 960.87 a.u.
MST Average ([1]; Fig 2B, nucleotide 0.63 µM): 975.44 a.u.
MST Replicates (a.u.) ([1]; Fig 2B, nucleotide 0.63 µM): 975.52 a.u. and 975.43 a.u. and 975.39 a.u.
MST Average ([1]; Fig 2B, nucleotide 1.25 µM): 984.37 a.u.
MST Replicates (a.u.) ([1]; Fig 2B, nucleotide 1.25 µM): 979.99 a.u. and 986.37 a.u. and 986.76 a.u.
MST Average ([1]; Fig 2B, nucleotide 2.50 µM): 1006.59 a.u.
MST Replicates (a.u.) ([1]; Fig 2B, nucleotide 2.50 µM): 1003.01 a.u. and 1008.37 a.u. and 1008.39 a.u.
MST Average ([1]; Fig 2B, nucleotide 5.00 µM): 1020.42 a.u.
MST Replicates (a.u.) ([1]; Fig 2B, nucleotide 5.00 µM): 1016.52 a.u. and 1022.52 a.u. and 1022.21 a.u.
MST Average ([1]; Fig 2B, nucleotide 10.00 µM): 1023.06 a.u.
MST Replicates (a.u.) ([1]; Fig 2B, nucleotide 10.00 µM): 1019.11 a.u. and 1024.56 a.u. and 1025.50 a.u.
MST Average ([1]; Fig 2B, nucleotide 20.00 µM): 1004.40 a.u.
MST Replicates (a.u.) ([1]; Fig 2B, nucleotide 20.00 µM): 999.60 a.u. and 1006.70 a.u. and 1006.89 a.u.
Kd ([1]; KD of GTP for the 30S IC, 30S IC programmed with mInfA): 1900 ± 200 nM
Kd ([1]; KD of GTP for the 30S IC, 30S IC programmed with mTufA): 280 ± 40 nM
MST Average ([1]; mInfA, GTP 0.061 μM): 967.92 a.u.
MST Replicates (a.u.) ([1]; mInfA, GTP 0.061 μM): 966.87 a.u. and 968.59 a.u. and 968.30 a.u.
MST Average ([1]; mInfA, GTP 0.122 μM): 967.19 a.u.
MST Replicates (a.u.) ([1]; mInfA, GTP 0.122 μM): 972.17 a.u. and 974.24 a.u. and 955.18 a.u.
MST Average ([1]; mInfA, GTP 0.244 μM): 974.83 a.u.
MST Replicates (a.u.) ([1]; mInfA, GTP 0.244 μM): 973.77 a.u. and 975.34 a.u. and 975.39 a.u.
MST Average ([1]; mInfA, GTP 1.953 μM): 1006.13 a.u.
MST Average ([1]; mInfA, GTP 3.906 μM): 1021.73 a.u.
MST Replicates (a.u.) ([1]; mInfA, GTP 3.906 μM): 1021.53 a.u. and 1022.43 a.u. and 1021.24 a.u.
MST Average ([1]; mInfA, GTP 7.812 μM): 1043.12 a.u.
MST Replicates (a.u.) ([1]; mInfA, GTP 7.812 μM): 1042.43 a.u. and 1043.93 a.u. and 1042.99 a.u.
MST Average ([1]; mInfA, GTP 15.625 μM): 1059.58 a.u.
MST Replicates (a.u.) ([1]; mInfA, GTP 15.625 μM): 1058.78 a.u. and 1060.65 a.u. and 1059.32 a.u.
MST Average ([1]; mInfA, GTP 31.25 μM): 1066.52 a.u.
MST Replicates (a.u.) ([1]; mInfA, GTP 31.25 μM): 1066.71 a.u. and 1066.40 a.u. and 1066.45 a.u.
MST Average ([1]; mMF1, GTP 0.061 μM): 955.96 a.u.
MST Replicates (a.u.) ([1]; mMF1, GTP 0.061 μM): 954.37 a.u. and 956.60 a.u. and 956.92 a.u.
MST Average ([1]; mMF1, GTP 0.122 μM): 960.57 a.u.
MST Replicates (a.u.) ([1]; mMF1, GTP 0.122 μM): 957.75 a.u. and 961.91 a.u. and 962.05 a.u.
MST Average ([1]; mMF1, GTP 0.244 μM): 971.65 a.u.
MST Replicates (a.u.) ([1]; mMF1, GTP 0.244 μM): 968.94 a.u.
MST Average ([1]; mMF1, GTP 1.953 μM): 1013.90 a.u.
MST Average ([1]; mMF1, GTP 3.906 μM): 1027.63 a.u.
MST Replicates (a.u.) ([1]; mMF1, GTP 3.906 μM): 1022.88 a.u. and 1029.90 a.u. and 1030.12 a.u.
MST Average ([1]; mMF1, GTP 7.812 μM): 1034.32 a.u.
MST Replicates (a.u.) ([1]; mMF1, GTP 7.812 μM): 1030.42 a.u. and 1036.20 a.u. and 1036.34 a.u.
MST Average ([1]; mMF1, GTP 15.625 μM): 1039.20 a.u.
MST Replicates (a.u.) ([1]; mMF1, GTP 15.625 μM): 1035.40 a.u. and 1041.45 a.u. and 1040.76 a.u.
MST Average ([1]; mMF1, GTP 31.25 μM): 1035.42 a.u.
MST Replicates (a.u.) ([1]; mMF1, GTP 31.25 μM): 1032.74 a.u. and 1036.98 a.u. and 1036.55 a.u.
KD of GTP with mTufA lower than with mMF1 ([1]; mTufA vs mMF1): about 2 fold
MST Average ([1]; mTufA, GTP 0.244 μM): 1017.37 a.u.
MST Average ([1]; mTufA, GTP 1.953 μM): 1082.32 a.u.
MST Average ([1]; mTufA, GTP 3.906 μM): 1097.99 a.u.
MST Replicates (a.u.) ([1]; mTufA, GTP 3.906 μM): 1095.97 a.u. and 1098.36 a.u. and 1099.66 a.u.
MST Average ([1]; mTufA, GTP 7.812 μM): 1113.91 a.u.
MST Replicates (a.u.) ([1]; mTufA, GTP 7.812 μM): 1111.40 a.u. and 1114.56 a.u. and 1115.76 a.u.
MST Average ([1]; mTufA, GTP 15.625 μM): 1117.61 a.u.
MST Replicates (a.u.) ([1]; mTufA, GTP 15.625 μM): 1116.26 a.u. and 1117.65 a.u. and 1118.92 a.u.
MST Average ([1]; mTufA, GTP 31.25 μM): 1112.61 a.u.
MST Replicates (a.u.) ([1]; mTufA, GTP 31.25 μM): 1112.94 a.u. and 1112.01 a.u. and 1112.88 a.u.
Kd ([1]; nucleotide titration at constant IF2 (1 μM), read-out: KD for the IF2-bound 30S IC): 500 ± 100 nM
kapp of Bpy-tRNAi accommodation (70S IC formation) ([2]; 30S ICs formed with 0.2 mM nucleotide, mixed with 50S subunits): 2.4 ± 0.2 s^–1
A0, best-fit value ([2]; mInfA): 0.90
A1, best-fit value ([2]; mInfA): 0.11
K1, best-fit value ([2]; mInfA): 1.58
k2, best-fit value ([2]; mInfA): -0.00193
A0, best-fit value ([2]; mMF1): 0.90
A1, best-fit value ([2]; mMF1): 0.10
K1, best-fit value ([2]; mMF1): 1.49
k2, best-fit value ([2]; mMF1): -1.6e-5
Fluorescence Amplitude Avg ([2]; mRNA mInfA): 0.108
kfast (s-1) Avg ([2]; mRNA mInfA): 1.58 s⁻¹
Fluorescence Amplitude Avg ([2]; mRNA mMF1): 0.103
kfast (s-1) Avg ([2]; mRNA mMF1): 1.49 s⁻¹
Fluorescence Amplitude Avg ([2]; mRNA mTufA): 0.145
kfast (s-1) Avg ([2]; mRNA mTufA): 2.69 s⁻¹
A0, best-fit value ([2]; mTufA): 0.86
A1, best-fit value ([2]; mTufA): 0.15
K1, best-fit value ([2]; mTufA): 2.69
k2, best-fit value ([2]; mTufA): -0.00034
